Where two headings read alike, the source gives them in different places.
Columns and labels:
[1] = molecular target: T1, dopamine (DA) transporter (DAT) (Rattus norvegicus, UniProt P23977); assay: Competitive radioligand binding, [3H]WIN35428, rat brain membranes
T1 construct: Rat brains were dissected and tissue was homogenized in cold lysis buffer; from tissue; host or cells: rat brain membrane preparation
Procedure: All studies were performed at Gifford Bioscience, Ltd. (Birmingham, UK) according to standard protocols.
Radioligands used were: [^3H] Citalopram (PerkinElmer NET1039250UC); [^3H] Nisoxetine (PerkinElmer NET1084250UC); [^3H] WIN35428 (PerkinElmer NET1033250UC). Nonspecific compounds used were Citalopram (Tocris Bioscience 1,427); JHW007 (Tocris Bioscience 4,351); Nomifensine (Abcam ab146004). […] Rat brains were dissected and tissue was homogenized in cold lysis buffer, centrifuged at 100xg for 2 min and the supernatant was placed in a fresh tube. Supernatant was centrifuged at 13,000 × g for 10 min at 4°C to re-pellet the cell lysate. The pellet was resuspended in fresh wash buffer (50 mM Tris–HCl; 5 mM MgCl2; 5 mM EDTA) and centrifuged a third time. The pellet was then resuspended in wash buffer containing 10% sucrose as a cryoprotectant, divided into aliquots (0.3 mL) and stored at −80°C. A sample of the homogenate was analyzed for protein content using the Sigma® BCA assay. On the day of the assay, the membrane preparation was thawed and the pellet resuspended in final assay buffer. […] Filters were then dried under a warm air stream, sealed in polyethylene, scintillation cocktail added, and the radioactivity counted in a Wallac® TriLux 1,450 MicroBeta counter. […] Ki was subsequently calculated using the Cheng-Prusoff equation.

168 GPCRs [2] = molecular target: T2, 168 GPCRs (Homo sapiens, UniProt P18089); format: cell-based; details: ADRA2B
T2 construct: host or cells: PathHunter cell lines
T2 sequence (P18089 1-450): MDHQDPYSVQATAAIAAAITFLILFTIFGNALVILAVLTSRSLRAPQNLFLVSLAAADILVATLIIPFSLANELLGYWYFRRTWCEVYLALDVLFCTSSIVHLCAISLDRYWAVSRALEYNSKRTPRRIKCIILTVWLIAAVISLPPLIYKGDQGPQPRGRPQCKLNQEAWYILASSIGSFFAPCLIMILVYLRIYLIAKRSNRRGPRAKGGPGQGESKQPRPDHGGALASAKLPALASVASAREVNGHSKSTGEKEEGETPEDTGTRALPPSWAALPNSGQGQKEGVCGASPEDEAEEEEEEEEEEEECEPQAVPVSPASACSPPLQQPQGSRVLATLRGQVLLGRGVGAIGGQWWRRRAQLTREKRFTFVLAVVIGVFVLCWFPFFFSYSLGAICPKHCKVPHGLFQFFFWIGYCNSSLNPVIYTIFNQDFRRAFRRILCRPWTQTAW

168 GPCRs [3] = molecular target: T3, 168 GPCRs (Homo sapiens, UniProt Q99788); format: cell-based
T3 construct: host or cells: PathHunter cell lines
T3 sequence (Q99788 1-373): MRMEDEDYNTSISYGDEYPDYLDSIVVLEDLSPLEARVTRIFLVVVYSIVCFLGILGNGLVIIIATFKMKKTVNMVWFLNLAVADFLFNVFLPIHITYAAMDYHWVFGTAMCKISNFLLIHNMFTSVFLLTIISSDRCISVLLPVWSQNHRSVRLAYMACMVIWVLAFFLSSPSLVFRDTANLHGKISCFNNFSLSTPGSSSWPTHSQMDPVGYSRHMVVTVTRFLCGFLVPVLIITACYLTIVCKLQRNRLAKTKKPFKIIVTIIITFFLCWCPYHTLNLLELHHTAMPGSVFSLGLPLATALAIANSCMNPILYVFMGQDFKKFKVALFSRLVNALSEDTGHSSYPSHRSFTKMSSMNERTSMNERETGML

168 GPCRs [4] = molecular target: T4, 168 GPCRs (Homo sapiens, UniProt O95977); format: cell-based
T4 construct: host or cells: PathHunter cell lines
T4 sequence (O95977 1-384): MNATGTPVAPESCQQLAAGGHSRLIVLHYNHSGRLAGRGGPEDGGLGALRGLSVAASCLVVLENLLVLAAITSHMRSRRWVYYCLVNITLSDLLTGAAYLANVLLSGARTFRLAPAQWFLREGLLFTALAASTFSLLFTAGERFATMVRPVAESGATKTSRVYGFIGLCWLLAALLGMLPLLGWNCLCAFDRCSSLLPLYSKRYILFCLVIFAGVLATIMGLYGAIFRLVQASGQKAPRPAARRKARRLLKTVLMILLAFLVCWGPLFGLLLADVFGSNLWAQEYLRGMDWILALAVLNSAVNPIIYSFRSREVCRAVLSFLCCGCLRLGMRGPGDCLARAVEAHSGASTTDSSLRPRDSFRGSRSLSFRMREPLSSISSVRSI

T1 sequence (P23977 whole entry): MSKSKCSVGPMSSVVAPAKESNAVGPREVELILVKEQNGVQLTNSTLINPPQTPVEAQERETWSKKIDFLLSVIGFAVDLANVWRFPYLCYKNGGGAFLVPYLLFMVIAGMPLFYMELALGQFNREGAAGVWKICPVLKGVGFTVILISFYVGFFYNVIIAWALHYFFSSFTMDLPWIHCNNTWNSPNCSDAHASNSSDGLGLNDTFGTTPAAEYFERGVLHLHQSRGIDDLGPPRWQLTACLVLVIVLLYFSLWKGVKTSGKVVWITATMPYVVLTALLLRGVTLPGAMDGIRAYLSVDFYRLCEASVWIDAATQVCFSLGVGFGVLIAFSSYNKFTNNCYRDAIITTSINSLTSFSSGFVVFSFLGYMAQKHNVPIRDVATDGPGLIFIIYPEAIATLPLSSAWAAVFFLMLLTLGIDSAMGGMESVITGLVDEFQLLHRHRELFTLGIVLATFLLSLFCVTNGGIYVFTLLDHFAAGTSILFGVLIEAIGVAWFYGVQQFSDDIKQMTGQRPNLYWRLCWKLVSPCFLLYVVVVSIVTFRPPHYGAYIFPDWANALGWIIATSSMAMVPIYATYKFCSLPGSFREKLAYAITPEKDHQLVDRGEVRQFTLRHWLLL

Row | Compound | Ki ([1]; read-out: Ki, DAT, competitive radioligand binding, rat brain membranes, Cheng-Prusoff) [µM] | % Agonist Activity (168 GPCRs [2]; 1 uM) [%] | % Antagonist Activity (168 GPCRs [2]; 1 uM) [%] | % Agonist Activity (168 GPCRs [2]; 10 uM) [%] | % Antagonist Activity (168 GPCRs [2]; 10 uM) [%] | % Agonist Activity (168 GPCRs [3]; CMKLR1, 1 uM) [%] | % Antagonist Activity (168 GPCRs [3]; CMKLR1, 1 uM) [%] | % Agonist Activity (168 GPCRs [3]; CMKLR1, 10 uM) [%] | % Antagonist Activity (168 GPCRs [3]; CMKLR1, 10 uM) [%] | % Agonist Activity (168 GPCRs [4]; EDG6, 1 uM) [%] | % Antagonist Activity (168 GPCRs [4]; EDG6, 1 uM) [%] | % Agonist Activity (168 GPCRs [4]; EDG6, 10 uM) [%] | % Antagonist Activity (168 GPCRs [4]; EDG6, 10 uM) [%] | Ki [1] [µM]
1 | CNC(C)Cc1ccc2c(c1)OCO2 (centres unmarked) [MDMA, 3,4-Methylenedioxy methamphetamine, reference compound] | 5.11 | 5.2 | 12.8 | 1.3 | 2.9 | -0.3 | 0.4 | -0.4 | 1.1 | 6.3 | 14.1 | 4 | 18 | –
2 | CNC(C)C(=O)c1ccc2c(c1)OCO2 (centres unmarked) [methylone] | – | -1 | 8.5 | 1.3 | 6.3 | -0.2 | -0.2 | -0.3 | -5.6 | -1.7 | 13.2 | -0.3 | 7.8 | 5.73

Source: publication PMC10882719 (Frontiers in Neuroscience, 2024)
